Reference: patent US10562857B2 (AFASCI, Inc., priority 2015, dated 2020)
pIC50: −log10 of the molar value. Entries after “also recorded” stand apart in the source; their conditions may differ.

Columns and labels:
SNI mice [1] = assay: Spared nerve injury (SNI) mice, von Frey monofilament test; assay type: in vivo, mouse; settings: 30 mg/kg, 0.2 mL I.P.
Text: FIG. 1B. Mechanical pain threshold assessment (using von Frey monofilament test) of the same cohort of SNI mice's left hindpaws.
(§1) T-channel specific inhibitors are not yet available for clinical treatment of neuropathic pain. The spared nerve injury (SNI) model, one of the reliable neuropathic pain models in mice and rats (Decosterd and Woolf, 2000), was used to assess the effects of the representative compounds.
(§2) Of the three branches of the sciatic nerve, the tibial and common peroneal nerves of the mice (C57BL/6, male, 25-30 g, Harlan) were cut and ligated, leaving the sural nerve intact. Pre-surgery baselines (100%) of the thermal and mechanical pain thresholds of the ipsilateral hind paws were measured using the Hargreaves thermal stimulator (Hargreaves et al., 1988) and von Frey hair monofilaments (up-down method, Chaplan et al., 1994), respectively. Mice underwent the SNI surgery on their left hind leg. Two weeks post-surgery, the thermal thresholds of each mouse were reassessed.
(§3) EXAMPLE-11, 14, 38, 62, or 113 (FIGS. 1A and B) and EXAMPLE-12, 16, 19, 39, or 44 (FIGS. 2A and B) were administered at 30 mg/kg (0.2 mL I.P.) in a vehicle (pure DMSO to dissolve the powder first and then add 0.5% Hydroxyl Propyl Cellulose, HPC, to contain 2% DMSO in injection solution). All drug solutions used the same vehicle, unless specified otherwise.

Cav3.2 channel = molecular target: T1, Cav3.2 channel (Homo sapiens, UniProt O95180); assay: Whole-cell patch clamp of T-type Cav3.2 channel expressed in HEK293 cells; assay type: cell-based; settings: for pIC50: Table 1, tested at at least 4 concentrations, read-out: IC50; for inhibition at 1 µM: HEK293, Table 1 primary screening
T1 construct: expressed in transfected cells; host or cells: HEK-293, tetracycline inducible expression system (Invitrogen)

SNI mice [2] = assay: Spared nerve injury (SNI) mice, Hargreaves thermal test; assay type: in vivo, mouse; settings: 30 mg/kg, 0.2 mL I.P.
Method: FIG. 1A. Examples of compounds that mitigate neuropathic pain induced by Spared Nerve Injury (SNI) in mice. The withdrawal latencies of the mice's left hindpaws (injured site) in response to thermal stimulation (Hargreaves test). Each SNI mouse received either EXAMPLE (EX)-11, -14, -38, -62, or 113, or gabapentin, as benchmark (each 30 mg/kg, 0.2 mL I.P.), or vehicle (0.2 mL I.P. 2% DMSO in 0.5% Hydroxyl Propyl Cellulose, HPC). […] 40 seconds were cut off in order to prevent tissue damage (n=8 per group).
as §1, §2, §3

CFA mice = assay: Complete Freund's Adjuvant (CFA)-induced inflammatory pain in mice, von Frey test; assay type: in vivo, mouse
Method: FIG. 7. Effects of EXAMPLE-96, 107 or 115 (each 30 mg/kg, I.P.) or gabapentin (as a benchmark, 100 mg/kg, I.P) on Complete Freund's Adjuvant (CFA)-induced inflammation in male, mice (C57BL/6, ˜2 months old; n=8 mice per group). Mechanical pain threshold assessment of CFA mice's left hindpaws were measured using von Frey monofilament test at 0.5, 1, 2, 4, and 6 hours after treatment.
Because knockout or antisense knockdown of the Cav3.2 isoform produces analgesic effects in neuropathic pain as well as in inflammatory pain in mice (Choi et al., 2007), we used the Complete Freund adjuvant (CFA)-inflammatory pain in mice to investigate the drug effects. EXAMPLE-96, -115, and -107 (each at 30 mg/kg, I.P.) and a reference gabapentin (100 mg/kg, I.P.) was individually administered to mice that had CFA-induced inflammation on their left hindpaws.

SNI rats [3] = assay: Spared nerve injury (SNI) rats, Hargreaves thermal test; assay type: in vivo, rat; settings: 30 mg/kg, 1 mL I.P.
Method: FIG. 3A. Spared Nerve Injury (SNI) rats' left hindpaw withdrawal latencies in response to thermal stimulation (Hargreaves test). Each SNI rat received either EXAMPLE-106, 107, or 115, (each 30 mg/kg, 1 mL I.P.), or vehicle (2% DMSO in 0.5% HPC). Sham rats also received vehicle I.P. injections. […] 40 seconds were cutoff in order to prevent tissue damage. The sham-vehicle serves as a positive control (n=8 per treatment group).
(§4) In additional examples shown here, the analgesic effects were further evaluated in another rat species. Baseline thermal and mechanical thresholds of male rats (Sprague-Dawley rats, 275 g-325 g, Harlan) were taken prior to surgery; baseline thresholds were measured on the rats' left hindpaws. Thirty-two rats underwent the SNI surgery on their left hind leg; 8 rats underwent surgery without injury of the nerves as a sham group. Two weeks post-surgery, the thermal thresholds of each rat were reassessed. […] Each rat received either EXAMPLE-106, -107, -115 (each 30 mg/kg, 1 mL I.P.), or vehicle (2% DMSO in 0.5% HPC). Thermal and mechanical thresholds were measured at 1, 2, 3, 4, 5, 6, 7, and 8 hours post-treatment/dosing. […] The drug actions started around 1 hour post-injection and peaked between 2 and 3 hours, and the drug effects gradually declined to pre-treatment levels over 6-7 hours (FIGS. 3A and B).

SNI rats [4] = assay: Spared nerve injury (SNI) rats, von Frey monofilament test; assay type: in vivo, rat; settings: for start of drug action post-injection: 30 mg/kg I.P., thermal and mechanical thresholds; for mechanical pain threshold of left hindpaw (allodynia): 30 mg/kg, 1 mL I.P.
Method: FIG. 3B. Mechanical pain threshold assessment (von Frey monofilament test) of SNI rats' left hindpaws. Each SNI rat received either EXAMPLE-106, -107, and -115 (each 30 mg/kg, 1 mL I.P.), or vehicle (1 mL I.P. 2% DMSO in 0.5% HPC). Sham rats also received vehicle I.P. injections. […] The sham-vehicle serves as a positive control. Thermal and mechanical pain responses were measured once every hour for 8 consecutive hours after I.P. treatment (n=8 rats per treatment group).
FIG. 4. Mechanical pain threshold assessment (von Frey monofilament test) of left hindpaws in another cohort of SNI rats. Each SNI rat received either EXAMPLE-128, -130, -132, or Z944 (as a reference compound, each 10 mg/kg, 2 mL oral gavage, P.O.). […] Mechanical pain responses were measured at pre-dosing, 1, 2, 4, and 6 hours post-treatment using von Frey monofilament test (n=8 rats per group).
as §4
In another cohort of SNI rats ((n=8 per group)), mechanical thresholds were measured at pre-dosing, 1, 2, 4, and 6 hours post-treatment using von Frey monofilament test.

T1 sequence (O95180 whole entry): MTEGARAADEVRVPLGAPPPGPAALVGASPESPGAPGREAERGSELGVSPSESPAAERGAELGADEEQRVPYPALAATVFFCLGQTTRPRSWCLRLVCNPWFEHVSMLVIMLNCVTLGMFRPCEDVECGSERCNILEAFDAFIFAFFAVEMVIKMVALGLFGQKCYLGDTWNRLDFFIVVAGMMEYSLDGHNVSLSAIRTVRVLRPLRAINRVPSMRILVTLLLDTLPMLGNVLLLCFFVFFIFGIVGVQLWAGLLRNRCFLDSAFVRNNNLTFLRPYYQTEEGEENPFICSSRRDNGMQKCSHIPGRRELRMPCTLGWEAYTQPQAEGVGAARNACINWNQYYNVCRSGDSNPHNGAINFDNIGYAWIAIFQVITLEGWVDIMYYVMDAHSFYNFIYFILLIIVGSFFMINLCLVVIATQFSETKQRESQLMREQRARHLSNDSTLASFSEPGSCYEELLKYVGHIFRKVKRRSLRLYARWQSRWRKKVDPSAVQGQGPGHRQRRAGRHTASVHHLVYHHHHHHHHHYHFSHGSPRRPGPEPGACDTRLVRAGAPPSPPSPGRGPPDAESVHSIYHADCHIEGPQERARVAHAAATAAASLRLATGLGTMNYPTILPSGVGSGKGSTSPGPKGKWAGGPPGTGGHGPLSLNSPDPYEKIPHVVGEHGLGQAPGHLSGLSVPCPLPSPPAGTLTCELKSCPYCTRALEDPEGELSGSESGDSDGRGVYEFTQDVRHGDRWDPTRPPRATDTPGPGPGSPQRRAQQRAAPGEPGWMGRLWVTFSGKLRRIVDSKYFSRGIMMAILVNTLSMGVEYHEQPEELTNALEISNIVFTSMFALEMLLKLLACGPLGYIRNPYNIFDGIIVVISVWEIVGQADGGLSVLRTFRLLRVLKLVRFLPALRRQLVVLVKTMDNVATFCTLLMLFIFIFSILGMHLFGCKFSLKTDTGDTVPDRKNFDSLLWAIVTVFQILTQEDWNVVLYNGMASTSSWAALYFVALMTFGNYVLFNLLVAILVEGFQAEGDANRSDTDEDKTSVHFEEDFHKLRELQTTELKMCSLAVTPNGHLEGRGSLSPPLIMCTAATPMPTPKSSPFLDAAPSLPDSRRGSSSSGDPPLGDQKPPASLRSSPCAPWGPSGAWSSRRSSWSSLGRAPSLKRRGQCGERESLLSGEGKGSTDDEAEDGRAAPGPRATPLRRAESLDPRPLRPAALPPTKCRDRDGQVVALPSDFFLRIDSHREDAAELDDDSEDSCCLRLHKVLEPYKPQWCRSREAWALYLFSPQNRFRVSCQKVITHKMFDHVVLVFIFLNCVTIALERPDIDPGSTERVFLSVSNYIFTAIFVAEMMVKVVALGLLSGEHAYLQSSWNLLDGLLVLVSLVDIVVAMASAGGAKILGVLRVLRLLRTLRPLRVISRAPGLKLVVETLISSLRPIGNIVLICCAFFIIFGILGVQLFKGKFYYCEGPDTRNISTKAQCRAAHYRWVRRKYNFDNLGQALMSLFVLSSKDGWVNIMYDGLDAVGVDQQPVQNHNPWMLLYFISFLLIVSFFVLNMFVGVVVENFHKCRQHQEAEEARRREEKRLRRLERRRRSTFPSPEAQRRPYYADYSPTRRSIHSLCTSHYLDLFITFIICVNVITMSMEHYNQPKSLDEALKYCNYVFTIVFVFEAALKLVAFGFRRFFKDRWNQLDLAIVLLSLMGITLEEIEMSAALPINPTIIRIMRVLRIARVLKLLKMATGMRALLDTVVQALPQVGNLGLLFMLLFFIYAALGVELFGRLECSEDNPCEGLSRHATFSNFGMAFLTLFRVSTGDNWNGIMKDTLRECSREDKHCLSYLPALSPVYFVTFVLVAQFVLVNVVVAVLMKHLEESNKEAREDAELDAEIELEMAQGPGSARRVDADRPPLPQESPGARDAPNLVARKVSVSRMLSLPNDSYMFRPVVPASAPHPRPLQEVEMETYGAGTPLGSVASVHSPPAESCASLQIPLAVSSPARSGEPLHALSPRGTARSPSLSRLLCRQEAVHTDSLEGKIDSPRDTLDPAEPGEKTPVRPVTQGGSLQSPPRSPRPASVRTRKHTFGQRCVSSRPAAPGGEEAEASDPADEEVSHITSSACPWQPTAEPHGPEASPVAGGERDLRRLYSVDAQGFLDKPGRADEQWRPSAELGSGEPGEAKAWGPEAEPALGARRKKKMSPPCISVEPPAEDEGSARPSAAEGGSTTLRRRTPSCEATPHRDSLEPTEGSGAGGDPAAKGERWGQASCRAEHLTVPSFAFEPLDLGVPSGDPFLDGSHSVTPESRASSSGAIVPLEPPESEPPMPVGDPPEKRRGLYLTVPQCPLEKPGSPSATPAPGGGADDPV

Structure (SMILES) | mechanical pain threshold of left hindpaw (allodynia) (SNI mice [1]) | pIC50 (Cav3.2 channel) | left hindpaw withdrawal latency to thermal stimulation (hyperalgesia) (SNI mice [2]) | other results
CC(C)CN1CCC2(CC1)CC2NC(=O)c1cc(Cl)cc(Cl)c1 (stereo not shown) [Example 11, 3,5-Dichloro-N-(6-isobutyl-6-azaspiro[2.5]octan-1-yl)benzamide] | produced analgesic effects; also recorded: reduced allodynia | 6.38 | produced analgesic effects; also recorded: reduced hyperalgesia | 
CC(C)(C)CCN1CCC2(CC1)CC2NC(=O)c1cc(Cl)cc(Cl)c1 (stereo not shown) [Example 12, 3,5-Dichloro-N-(6-(3,3-dimethylbutyl)-6-azaspiro[2.5]octan-1-yl)benzamide] | produced analgesic effects; also recorded: reduced allodynia | 7.30 | produced analgesic effects; also recorded: reduced hyperalgesia | 
CC(C)(C)NC(=O)CN1CCC2(CC1)CC2NC(=O)c1cc(Cl)cc(Cl)c1 (stereo not shown) [Example 14, N-(6-(2-(tert-Butylamino)-2-oxoethyl)-6-azaspiro[2.5]octan-1-yl)-3,5-dichlorobenzamide] | produced analgesic effects; also recorded: reduced allodynia | 7.52 | produced analgesic effects; also recorded: reduced hyperalgesia | 
CC(C)(C)NC(=O)CN1CCC2(CC1)CC2NC(=O)c1cc(C(F)(F)F)cc(C(F)(F)F)c1 (stereo not shown) [Example 16, N-(6-(2-(tert-Butylamino)-2-oxoethyl)-6-azaspiro[2.5]octan-1-yl)-3,5-bis(trifluoromethyl)benzamide] | produced analgesic effects; also recorded: reduced allodynia | 6.92 | produced analgesic effects; also recorded: reduced hyperalgesia | 
CC(C)(C)CCN1CCC2(CC1)CC2NC(=O)c1cc(C(F)(F)F)cc(C(F)(F)F)c1 (stereo not shown) [Example 19, N-(6-(3,3-Dimethylbutyl)-6-azaspiro[2.5]octan-1-yl)-3,5-bis(trifluoromethyl)benzamide] | produced analgesic effects; also recorded: reduced allodynia | 7.52 | produced analgesic effects; also recorded: reduced hyperalgesia | 
CC(C)(C)OCCN1CCC2(CC1)CC2NC(=O)c1cc(Cl)cc(Cl)c1 (stereo not shown) [Example 38, N-(6-(2-(tert-Butoxy)ethyl)-6-azaspiro[2.5]octan-1-yl)-3,5-dichlorobenzamide] | produced analgesic effects; also recorded: reduced allodynia | 7.40 | produced analgesic effects; also recorded: reduced hyperalgesia | 
O=C(NC1CC12CCN(CC(c1ccccc1)c1ccccc1)CC2)c1cc(Cl)cc(Cl)c1 (stereo not shown) [Example 39, 3,5-Dichloro-N-(6-(2,2-diphenylethyl)-6-azaspiro[2.5]octan-1-yl)benzamide] | produced analgesic effects; also recorded: reduced allodynia | 7.22 | produced analgesic effects; also recorded: reduced hyperalgesia | 
COc1ccc(CCN2CCC3(CC2)CC3NC(=O)c2cc(Cl)cc(Cl)c2)cc1 (stereo not shown) [Example 44, 3,5-Dichloro-N-(6-(4-methoxyphenethyl)-6-azaspiro[2.5]octan-1-yl)benzamide] | produced analgesic effects; also recorded: reduced allodynia | 7.00 | produced analgesic effects; also recorded: reduced hyperalgesia | 
O=C(NC1CCC12CCN(CCc1ccccc1)CC2)c1ccccc1 (stereo not shown) [Example 62] | produced analgesic effects; also recorded: reduced allodynia |  | produced analgesic effects; also recorded: reduced hyperalgesia | inhibition at 1 µM (Cav3.2 channel): 68%
CC(C)(C)NC(=O)CN1CCC(CNC(=O)c2ccccc2)CC1 [Example 96, N-((1-(2-(tert-Butylamino)-2-oxoethyl)piperidin-4-yl)methyl)benzamide] |  |  |  | mechanical pain threshold, CFA-induced inflammation (CFA mice; 30 mg/kg I.P.): showed an analgesic effect in mechanical pain; inhibition at 1 µM (Cav3.2 channel): 40%
O=C(CN1CCC(CNCC(=O)c2ccc[nH]2)CC1)Nc1ccccc1 [Example 106, 2-(4-(((2-Oxo-2-(1H-pyrrol-2-yl)ethyl)amino)methyl)piperidin-1-yl)-N-phenylacetamide] |  |  |  | left hindpaw withdrawal latency to thermal stimulation (hyperalgesia) (SNI rats [3]): elevated both thermal and mechanical thresholds; also recorded: reduced hyperalgesia; start of drug action post-injection (SNI rats [4]): around 1 hour; mechanical pain threshold of left hindpaw (allodynia) (SNI rats [4]): elevated both thermal and mechanical thresholds; also recorded: reduced allodynia
CC1(CNC(=O)c2ccccc2)CCN(CC(=O)NC(C)(C)C)CC1 [Example 107, N-((1-(2-(tert-butylamino)-2-oxoethyl)-4-methylpiperidin-4-yl)methyl)benzamide] |  |  |  | mechanical pain threshold, CFA-induced inflammation (CFA mice; 30 mg/kg I.P.): showed an analgesic effect in mechanical pain; left hindpaw withdrawal latency to thermal stimulation (hyperalgesia) (SNI rats [3]): elevated both thermal and mechanical thresholds; also recorded: reduced hyperalgesia; inhibition at 1 µM (Cav3.2 channel): 21%; start of drug action post-injection (SNI rats [4]): around 1 hour; mechanical pain threshold of left hindpaw (allodynia) (SNI rats [4]): elevated both thermal and mechanical thresholds; also recorded: reduced allodynia
CC(C)(C)NC(=O)CN1CCC2(CC[C@H]2NC(=O)c2cc(Cl)cc(Cl)c2)CC1 [Example 113, (R)—N-(7-(2-(tert-Butylamino)-2-oxoethyl)-7-azaspiro[3.5]nonan-1-yl)-3,5-dichlorobenzamide] | produced analgesic effects; also recorded: reduced allodynia | 6.19 | produced analgesic effects; also recorded: reduced hyperalgesia | 
NCC1(CC(=O)O)CCCCC1 [gabapentin, reference compound] | reduced allodynia |  | reduced hyperalgesia | mechanical pain threshold, CFA-induced inflammation (CFA mice; 100 mg/kg I.P.): showed an analgesic effect in mechanical pain
